Consider 21 compounds from US8580812B2, “Heteroaryl amide analogues as P2X7 antagonists” (H. Lundbeck A/S, priority 2007, dated 2013).

A value given as a limit tells only on which side of the number the result lay.

The target of the assay is T1, P2X7 (Homo sapiens, UniProt Q99572).
T1 construct: host or cells: SH-SY5Y
T1 sequence (Q99572 1-595): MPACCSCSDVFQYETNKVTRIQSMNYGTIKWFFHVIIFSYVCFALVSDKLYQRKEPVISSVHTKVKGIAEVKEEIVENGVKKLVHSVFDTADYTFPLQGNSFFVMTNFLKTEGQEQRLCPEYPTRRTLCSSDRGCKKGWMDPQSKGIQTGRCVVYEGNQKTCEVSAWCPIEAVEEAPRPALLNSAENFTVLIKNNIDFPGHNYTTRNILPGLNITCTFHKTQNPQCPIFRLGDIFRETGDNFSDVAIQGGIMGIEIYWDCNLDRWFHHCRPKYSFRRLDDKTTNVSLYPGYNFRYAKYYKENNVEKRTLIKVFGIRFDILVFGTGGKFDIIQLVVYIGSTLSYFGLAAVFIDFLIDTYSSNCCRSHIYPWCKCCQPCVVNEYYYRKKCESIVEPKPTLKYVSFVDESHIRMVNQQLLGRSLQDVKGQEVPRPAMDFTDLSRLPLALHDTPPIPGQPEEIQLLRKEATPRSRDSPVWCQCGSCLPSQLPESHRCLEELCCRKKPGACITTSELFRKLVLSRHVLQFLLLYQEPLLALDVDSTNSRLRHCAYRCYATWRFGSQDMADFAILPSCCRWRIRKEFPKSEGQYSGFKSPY
In words: High Throughput P2X7 Calcium Mobilization Assay (Example 4A), antagonist activity. The conditions noted are these: SH-SY5Y cells, 50% decrease in fluorescence response of cells exposed to 80 μM BzATP. Type of assay: cell-based. Put shortly:
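SH-SY5Y cells loaded with Fluo-4 AM were preincubated 1 h at room temperature with compound (typically 1–2500 nM) in sucrose/HEPES buffer, pH 7.4, then challenged with 80 μM BzATP (final, about EC50). Peak fluorescence over 2 min gave percent inhibition relative to agonist-only wells, and IC50 came from a Hill-equation fit.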
In general terms: Calcium flux is commonly read through the fluorescence of an indicator in the cells.
As for `O=C(Cc1cc2c(C(=O)NCC34CC5CC(CC(C5)C3)C4)cccn2n1)NCC(F)(F)F` [Compound 61, N-(adamantan-1-ylmethyl)-2-{2-oxo-2-[(2,2,2-trifluoroethyl)amino]ethyl}pyrazolo[1,5-a]pyridine-4-carboxamide], the IC50 (as a rule, the concentration that gives 50% inhibition) is not above 2000 nM.

As to `O=C(NCc1ccccn1)c1cc2c(C(=O)NCC34CC5CC(CC(C5)C3)C4)cccn2n1` [Compound 51, 4-N-(adamantan-1-ylmethyl)-2-N-(pyridin-2-ylmethyl)pyrazolo[1,5-a]pyridine-2,4-dicarboxamide], the IC50 was not above 2000 nM.

`CN(CCF)C(=O)c1cc2c(NC(=O)CC34CC5CC(CC(C5)C3)C4)cccn2n1` [Compound 98, 4-[(adamantan-1-ylacetyl)amino]-N-(2-fluoroethyl)-N-methylpyrazolo[1,5-a]pyridine-2-carboxamide]: the IC50 was not above 2000 nM. In the case of `CC(C)CC(CNC(=O)c1cccn2nc(C(=O)N3CC[C@@H](N)C3)cc12)c1ccc(Cl)cc1` (stereo partly drawn) [Compound 71, 2-{[(3R)-3-aminopyrrolidin-1-yl]carbonyl}-N-[2-(4-chlorophenyl)-4-methylpentyl]pyrazolo [1,5-a]pyridine-4-carboxamide] it was not above 2000 nM; in that of `CCOC(=O)CN(C)Cc1cc2c(C(=O)NCC34CC5CC(CC(C5)C3)C4)cccn2n1` [Compound 29, ethyl N-({4-[(adamantan-1-ylmethyl)carbamoyl]pyrazolo[1,5-a]pyridin-2-yl}methyl)-N-methylglycinate], not above 2000 nM. In the case of `O=C(O)CC(c1ccccc1)c1cc2c(C(=O)NCC34CC5CC(CC(C5)C3)C4)cccn2n1` (stereo not drawn) [Compound 106, 3-{4-[(adamantan-1-ylmethyl)carbamoyl]pyrazolo[1,5-a]pyridin-2-yl}-3-phenylpropanoic acid] it was not above 2000 nM; in that of `N[C@@H]1CCCN(C(=O)c2cc3c(C(=O)NCC45CC6CC(CC(C6)C4)C5)cccn3n2)C1` [Compound 17, N-(adamantan-1-ylmethyl)-2-{[(3R)-3-aminopiperidin-1-yl]carbonyl}pyrazolo [1,5-a]pyridine-4-carboxamide], not above 2000 nM; in that of `CN(Cc1cnn(C)c1)C(=O)c1cc2c(C(=O)NCC34CC5CC(CC(C5)C3)C4)cccn2n1` [Compound 49, 4-N-(adamantan-1-ylmethyl)-2-N-methyl-2-N-[(1-methyl-1H-pyrazol-4-yl)methyl]pyrazolo[1,5-a]pyridine-2,4-dicarboxamide], not above 2000 nM. In the case of `COCCN(C)C(=O)c1cc2c(C(=O)NCC34CC5CC(CC(C5)C3)C4)cccn2n1` [Compound 18, 4-N-(adamantan-1-ylmethyl)-2-N-(2-methoxyethyl)-2-N-methylpyrazolo[1,5-a]pyridine-2,4-dicarboxamide] it was not above 2000 nM; in that of `CN(CC(F)(F)F)C(=O)c1cc2c(C(=O)NCC34CC5CC(CC(C5)C3)C4)cccn2n1` [Compound 76, 4-N-(adamantan-1-ylmethyl)-2-N-methyl-2-N-(2,2,2-trifluoroethyl)pyrazolo [1,5-a]pyridine-2,4-dicarboxamide], not above 2000 nM; in that of `CN(CCF)C(=O)c1cc2c(C(=O)NCC3(c4ccc(Cl)cc4)CCCCC3)cccn2n1` [Compound 85, 4-N-{[1-(4-chlorophenyl)cyclohex-yl]methyl}-2-N-(2-fluoroethyl)-2-N-methylpyrazolo[1,5-a]pyridine-2,4-dicarboxamide], not above 2000 nM.

`CN(Cc1ccc(F)cc1)C(=O)c1cc2c(C(=O)NCC34CC5CC(CC(C5)C3)C4)cccn2n1` [Compound 67, 4-N-(adamantan-1-ylmethyl)-2-N-(4-fluorobenzyl)-2-N-methylpyrazolo[1,5-a]pyridine-2,4-dicarboxamide]: the IC50 is not above 2000 nM.

For `O=C1CC2(CCN(C(=O)c3cc4c(C(=O)NCC56CC7CC(CC(C7)C5)C6)cccn4n3)CC2)CN1` [Compound 40, N-(adamantan-1-ylmethyl)-2-[(3-oxo-2,8-diazaspiro[4.5]dec-8-yl)carbonyl]pyrazolo [1,5-a]pyridine-4-carboxamide], the 50% inhibitory concentration (IC50) was not above 2000 nM.

For `O=C(NCC1(c2ccc(Cl)cc2)CCCCC1)c1cccn2nc(C(=O)N3CCn4cncc4C3)cc12` [Compound 83, N-{[1-(4-chlorophenyl)cyclohex-yl]methyl}-2-(5,6-dihydroimidazo[1,5-a]pyrazin-7(8H)-ylcarbonyl)pyrazolo [1,5-a]pyridine-4-carboxamide], the IC50 is not above 2000 nM. For `CC(C)CC(CNC(=O)c1cccn2nc(C(=O)N3CCn4cncc4C3)cc12)c1ccc(C(F)(F)F)cc1` (stereo not drawn) [Compound 88, 2-(5,6-dihydroimidazo[1,5-a]pyrazin-7(8H)-ylcarbonyl)-N-{4-methyl-2-[4-(trifluoromethyl)phenyl]pentyl}pyrazolo[1,5-a]pyridine-4-carboxamide], the IC50 was not above 2000 nM. In the case of `O=C(NCC12CC3CC(CC(C3)C1)C2)c1cccn2nc(C(Cc3ccccc3)C(=O)O)cc12` (stereo not drawn) [Compound 103, 2-{4-[(adamantan-1-ylmethyl)carbamoyl]pyrazolo[1,5-a]pyridin-2-yl}-3-phenylpropanoic acid] it was not above 2000 nM; in that of `CN(Cc1cccc(F)c1)Cc1cc2c(C(=O)NCC34CC5CC(CC(C5)C3)C4)cccn2n1` [Compound 69, N-(adamantan-1-ylmethyl)-2-{[(3-fluorobenzyl)(methyl)amino]methyl}pyrazolo [1,5-a]pyridine-4-carboxamide], not above 2000 nM. Consider `CN(Cc1cccc(F)c1)C(=O)c1cc2c(C(=O)NCC34CC5CC(CC(C5)C3)C4)cccn2n1` [Compound 66, 4-N-(adamantan-1-ylmethyl)-2-N-(3-fluorobenzyl)-2-N-methylpyrazolo[1,5-a]pyridine-2,4-dicarboxamide], for which the IC50 is not above 2000 nM.

As to `O=C(O)c1ccc(-c2cc3c(C(=O)NCC45CC6CC(CC(C6)C4)C5)cccn3c2)cc1` [Compound 108, 4-{8-[(adamantan-1-ylmethyl)carbamoyl]indolizin-2-yl}benzoic acid], the IC50 is not above 2000 nM. The figure for `CC(C)N[C@@H]1CCN(C(=O)c2cc3c(C(=O)NCC45CC6CC(CC(C6)C4)C5)cccn3n2)C1` [Compound 16, N-(adamantan-1-ylmethyl)-2-{[(3R)-3-(isopropylamino)pyrrolidin-1-yl]carbonyl}pyrazolo [l,5-a]pyridine-4-carboxamide] is not above 2000 nM; for `Cc1nc2c(c(=O)[nH]1)CN(C(=O)c1cc3c(C(=O)NCC45CC6CC(CC(C6)C4)C5)cccn3n1)CC2` [Compound 30, N-(adamantan-1-ylmethyl)-2-[(2-methyl-4-oxo-3,5,7,8-tetrahydropyrido[4,3-d]pyrimidin-6(4H)-yl)carbonyl]pyrazolo [1,5-a]pyridine-4-carboxamide] it is not above 2000 nM.
